Data: patent US20040023295A1, “Methods and systems for analyzing complex biological systems” (priority 2001, published 2004)
“Also recorded” adds a separate entry of the source.

Columns and labels:
[1] = test system: Arabidopsis thaliana plants; experiment: Phenotypic analysis of herbicide-treated Arabidopsis plants (SOA1); format: in vivo; conditions: for Dev. leafWidth: numeric values standardized to the average response for the mock treated tissues; for Dev. leafCurling / Dev. leafTwisting / Dev. matureLeafAnthocyanins / Dev. matureLeafChlorosis / Dev. matureLeafNecrosis / Dev. newLeafAnthocyanins / Dev. newLeafChlorosis / Dev. newLeafNecrosis / Dev. pointedLeaves: standardized to mock treated; for Symptom Class: three-week-old Arabidopsis sprayed with herbicide, phenotype classes of FIG. 12; for Dev. tMic: time for full range of symptoms at MIC, coded score; for characteristic symptoms (morphological phenotype): herbicide-treated Arabidopsis
Arabidopsis thaliana [2] = experiment: Phenotypic profiling of Arabidopsis sprayed with unknown and commercial herbicides (MOA1); format: in vivo; conditions: Ward's method
Arabidopsis thaliana [3] = experiment: Gene expression profiling of sprayed Arabidopsis (MOA1); format: in vivo; conditions: for No. of Lethal Genes Altered: regulated genes identified as essential genes in internal database
Arabidopsis thaliana [4] = experiment: Biochemical (metabolite) profiling by LC-MS and GC-MS of sprayed Arabidopsis (MOA1); conditions: for stress related (commonly regulated) metabolites: within one hour after spraying
[5] = test system: Saccharomyces cerevisiae wild type strain BY4743; experiment: Yeast azole drug experiment AF1: metabolite analysis (GC-MS, LC-MS); format: cell-based
Magnaporthe grisea = format: cell-based
[6] = 1 hr, p < 0.5, arrays containing 22,000 Arabidopsis genes
[7] = early time points (20 min, 1 hour)

O=C(O)COc1ccc(Cl)cc1Cl [2,4-D]
Dev. leafWidth [1]: −1 | Dev. leafCurling [1]: 1 | Dev. leafTwisting [1]: 2 | Dev. matureLeafAnthocyanins [1]: 1 | Dev. matureLeafChlorosis [1]: 2 | Dev. matureLeafNecrosis [1]: 0 | Dev. newLeafAnthocyanins [1]: 0 | Dev. newLeafChlorosis [1]: 1 | Dev. newLeafNecrosis [1]: 0 | Dev. pointedLeaves [1]: 0 | Symptom Class [1]: 5 | Dev. tMic [1]: 2

O=C(O)c1cc(Oc2ccc(C(F)(F)F)cc2Cl)ccc1[N+](=O)[O-] [Acifluorfen]
characteristic symptoms (morphological phenotype) [1]: Necrotic leaf flecks

Nc1nc[nH]n1 [Amitrole]
characteristic symptoms (morphological phenotype) [1]: leaf bleaching and leaf enlargement | phenotype / hierarchical clustering of the eleven phenotypic characteristics (Arabidopsis thaliana [2]): exhibited chlorosis and not true bleaching

COC(=O)NS(=O)(=O)c1ccc(N)cc1 [Asulam]
No. of Lethal Genes Altered (Arabidopsis thaliana [3]): 5

CCNc1nc(Cl)nc(NC(C)C)n1 [Atrazine]
characteristic symptoms (morphological phenotype) [1]: rapid and widespread leaf necrosis

CC(C)N1C(=O)c2ccccc2NS1(=O)=O [Bentazon]
characteristic symptoms (morphological phenotype) [1]: rapid and widespread leaf necrosis

COC(=O)c1cc(Oc2ccc(Cl)cc2Cl)ccc1[N+](=O)[O-] [Bifenox]
characteristic symptoms (morphological phenotype) [1]: Necrotic leaf flecks

CCSC(=O)N(CC(C)C)CC(C)C [Butylate]
phenotype / hierarchical clustering of the eleven phenotypic characteristics (Arabidopsis thaliana [2]): neither showed a strong herbicidal phenotype | stress related (commonly regulated) metabolites (Arabidopsis thaliana [4]): neither butylate nor chlorpropham treatment resulted in many changes

COc1nc(C)nc(NC(=O)NS(=O)(=O)c2ccccc2Cl)n1 [Chlorsulfuron]
characteristic symptoms (morphological phenotype) [1]: anthocyanin accumulation in the older leaves accompanied by chlorosis of the newly emerging leaves | No. of Lethal Genes Altered (Arabidopsis thaliana [3]): 8

c1cc[n+]2c(c1)-c1cccc[n+]1CC2 [Diquat]
characteristic symptoms (morphological phenotype) [1]: rapid and widespread leaf necrosis | Dev. leafWidth [1]: −2 | Dev. leafCurling [1]: 2 | Dev. leafTwisting [1]: 0 | Dev. matureLeafAnthocyanins [1]: 0 | Dev. matureLeafChlorosis [1]: 1 | Dev. matureLeafNecrosis [1]: 4 | Dev. newLeafAnthocyanins [1]: 0 | Dev. newLeafChlorosis [1]: 1 | Dev. newLeafNecrosis [1]: 4 | Dev. pointedLeaves [1]: 1 | Symptom Class [1]: 7 | Dev. tMic [1]: 2

CN(C)C(=O)Nc1ccc(Cl)c(Cl)c1 [Diuron]
characteristic symptoms (morphological phenotype) [1]: rapid and widespread leaf necrosis | Dev. leafWidth [1]: −2 | Dev. leafCurling [1]: 1 | Dev. leafTwisting [1]: 0 | Dev. matureLeafAnthocyanins [1]: 0 | Dev. matureLeafChlorosis [1]: 2 | Dev. matureLeafNecrosis [1]: 4 | Dev. newLeafAnthocyanins [1]: 0 | Dev. newLeafChlorosis [1]: 2 | Dev. newLeafNecrosis [1]: 4 | Dev. pointedLeaves [1]: 1 | Symptom Class [1]: 7 | Dev. tMic [1]: 1

OC(Cn1cncn1)(Cn1cncn1)c1ccc(F)cc1F [Fluconazole]
Fold Change campesterol ([5]; GC): 0 | Fold Change desmosterol ([5]; GC): 0 | Fold Change octadecanoic acid ([5]; GC): 0.082 | Fold Change 4-methylcatechol ([5]; nLC): 0 | Fold Change 5hydroxyL-tryptophan ([5]; nLC): 0 | Fold Change 6-benzylaminopurine ([5]; nLC): 0 | Fold Change NacetylD-glucosamine ([5]; nLC): 0 | Fold Change NacetylL-ornithine ([5]; nLC): 0 | Fold Change abscisic acid ([5]; nLC): 0 | Fold Change adenine ([5]; nLC): 0 | Fold Change adenosine ([5]; nLC): 0 | Fold Change anthranilic acid ([5]; nLC): 0 | Fold Change argininosuccinate ([5]; nLC): 0 | Fold Change benzoic acid ([5]; nLC): 0 | Fold Change catechol ([5]; nLC): 0 | Fold Change cinnamic acid ([5]; nLC): 0 | Fold Change citricanoic/itaconi ([5]; nLC): 0 | Fold Change citrulline ([5]; nLC): 0 | Fold Change coumaric acid ([5]; nLC): 0 | Fold Change cytosine ([5]; nLC): 0 | Fold Change diaminopimelic acid ([5]; nLC): 0 | Fold Change dihydrofolic acid ([5]; nLC): 0 | Fold Change estrone ([5]; nLC): 0 | Fold Change farnesol ([5]; nLC): 0 | Fold Change folic acid ([5]; nLC): 0 | Fold Change gibberellic ([5]; nLC): 0 | Fold Change guanine ([5]; nLC): 0 | Fold Change histidine ([5]; nLC): 0 | Fold Change homogentisic/uric ([5]; nLC): 0 | Fold Change hydrocortisone ([5]; nLC): 0 | Fold Change indole3-pyruvic acid ([5]; nLC): 0 | Fold Change jasmonic acid ([5]; nLC): 0 | Fold Change kinetin ([5]; nLC): 0 | Fold Change luteolin ([5]; nLC): 0 | Fold Change malonic acid ([5]; nLC): 0 | Fold Change methionine ([5]; nLC): 0 | Fold Change orotic acid ([5]; nLC): 0 | Fold Change phenylpyruvic acid ([5]; nLC): 0 | Fold Change phosphoenolpyruvate ([5]; nLC): 0 | Fold Change pinitol ([5]; nLC): 0 | Fold Change porphobilinogen ([5]; nLC): 0 | Fold Change retinoic acid ([5]; nLC): 0 | Fold Change salicylic/HObenzoic ([5]; nLC): 0 | Fold Change shikimic acid ([5]; nLC): 0 | Fold Change sinapinic acid ([5]; nLC): 0 | Fold Change thymine ([5]; nLC): 0 | Fold Change urocanic acid ([5]; nLC): 0 | Fold Change xanthosine-DiH2O ([5]; nLC): 0 | Fold Change zeatin ([5]; nLC): 0 | Fold Change 4-aminobenzoic acid ([5]; pLC): 0 | Fold Change 4-methylcatechol ([5]; pLC): 0 | Fold Change 5hydroxyL-tryptophan ([5]; pLC): 0 | Fold Change 6benzylaminopurine ([5]; pLC): 0 | Fold Change NacetylD-glucosamine ([5]; pLC): 0 | Fold Change NacetylL-glutamate ([5]; pLC): 0 | Fold Change abscisic acid ([5]; pLC): 0 | Fold Change adenosine ([5]; pLC): 0 | Fold Change allantoic acid ([5]; pLC): 0 | Fold Change anthranilic acid ([5]; pLC): 0 | Fold Change argininosuccinate ([5]; pLC): 0 | Fold Change biotin ([5]; pLC): 0 | Fold Change caffeine ([5]; pLC): 0 | Fold Change citric acid TME ([5]; pLC): 0 | Fold Change cytidine ([5]; pLC): 0 | Fold Change cytosine ([5]; pLC): 0 | Fold Change diaminopimelic acid ([5]; pLC): 0 | Fold Change dihydrofolic acid ([5]; pLC): 0 | Fold Change dipicolinic acid ([5]; pLC): 0 | Fold Change folic acid ([5]; pLC): 0 | Fold Change glucosamine ([5]; pLC): 0 | Fold Change glucosamine6PO4 ([5]; pLC): 0 | Fold Change histidine ([5]; pLC): 0 | Fold Change hydrocortisone ([5]; pLC): 0 | Fold Change itaconic acid dimes ([5]; pLC): 0 | Fold Change kinetin ([5]; pLC): 0 | Fold Change luteolin ([5]; pLC): 0 | Fold Change niacinamide ([5]; pLC): 0 | Fold Change nopaline ([5]; pLC): 0 | Fold Change phosphoenolpyruvate ([5]; pLC): 0 | Fold Change progesterone ([5]; pLC): 0 | Fold Change riboflavin ([5]; pLC): 0 | Fold Change sugar-phosphate ([5]; pLC): 0 | Fold Change thiamine ([5]; pLC): 0 | Fold Change thymine ([5]; pLC): 0 | Fold Change tryptophan ([5]; pLC): 0 | Fold Change uric acid ([5]; pLC): 0 | Fold Change urocanic acid ([5]; pLC): 0 | Fold Change xanthosine (diH2O) ([5]; pLC): 0 | Fold Change zeatin ([5]; pLC): 0

CP(=O)(O)CCC(N)C(=O)O (stereo not shown) [Glufosinate]
characteristic symptoms (morphological phenotype) [1]: Chlorosis and leaf curling | Dev. leafWidth [1]: −2 | Dev. leafCurling [1]: 2 | Dev. leafTwisting [1]: 1 | Dev. matureLeafAnthocyanins [1]: 0 | Dev. matureLeafChlorosis [1]: 3 | Dev. matureLeafNecrosis [1]: 0 | Dev. newLeafAnthocyanins [1]: 0 | Dev. newLeafChlorosis [1]: 3 | Dev. newLeafNecrosis [1]: 0 | Dev. pointedLeaves [1]: 1 | Symptom Class [1]: 3 | Dev. tMic [1]: 1 | Regulated Genes: Down (Arabidopsis thaliana [3]; [6]): 54 | No. of Lethal Genes Altered (Arabidopsis thaliana [3]): 10 | stress related (commonly regulated) metabolites (Arabidopsis thaliana [4]): Only a few, if any

O=C(O)CNCP(=O)(O)O [Glyphosate]
characteristic symptoms (morphological phenotype) [1]: anthocyanin accumulation in the older leaves accompanied by chlorosis of the newly emerging leaves | Dev. leafWidth [1]: 0 | Dev. leafCurling [1]: 0 | Dev. leafTwisting [1]: 0 | Dev. matureLeafAnthocyanins [1]: 3 | Dev. matureLeafChlorosis [1]: 1 | Dev. matureLeafNecrosis [1]: 3 | Dev. newLeafAnthocyanins [1]: 1 | Dev. newLeafChlorosis [1]: 2 | Dev. newLeafNecrosis [1]: 0 | Dev. pointedLeaves [1]: 1 | Symptom Class [1]: 4 | Dev. tMic [1]: 2 | growth of M. grisea with ammonium or glutamine as nitrogen source (Magnaporthe grisea; 250 μg/ml): Little growth defect | growth of M. grisea with nitrate or glutamate as nitrogen source (Magnaporthe grisea; 250 μg/ml): inhibited growth | growth of M. grisea with nitrite as the sole nitrogen source (Magnaporthe grisea; 250 μg/ml): inhibited growth | growth results for Tiers 3 and 4 as compared to Unknown 4 (Magnaporthe grisea; 250 μg/ml): nearly identical | growth inhibition of M. grisea and its remediation (Magnaporthe grisea; 1.0 mg/ml): remediated by inclusion of aromatic amino acids | tyrosine level relative to the control (Arabidopsis thaliana [4]; [7]): decreased relative to the control

CC(C)C1(C)N=C(c2ncccc2C(=O)O)NC1=O (stereo not shown) [Imazapyr]
characteristic symptoms (morphological phenotype) [1]: anthocyanin accumulation in the older leaves accompanied by chlorosis of the newly emerging leaves | stress related (commonly regulated) metabolites (Arabidopsis thaliana [4]): Only a few, if any

CCc1cnc(C2=NC(C)(C(C)C)C(=O)N2)c(C(=O)O)c1 (stereo not shown) [Imazethapyr]
characteristic symptoms (morphological phenotype) [1]: anthocyanin accumulation in the older leaves accompanied by chlorosis of the newly emerging leaves

CS(=O)(=O)c1cc(C(F)(F)F)ccc1C(=O)c1cnoc1C1CC1 [Isoxaflutole]
alterations in the expression of genes involved in the homogentisate biosynthetic pathway (Arabidopsis thaliana [3]; MOA1, 1 hr): not observed | No. of Lethal Genes Altered (Arabidopsis thaliana [3]): 15 | Alpha-tocopherol level relative to the control (Arabidopsis thaliana [4]; early time points): not significantly changed | phenylalanine level relative to the control (Arabidopsis thaliana [4]; [7]): up-regulated; also recorded: began to accumulate relative to the control | tyrosine level relative to the control (Arabidopsis thaliana [4]; [7]): up-regulated; also recorded: began to accumulate relative to the control

CSc1nnc(C(C)(C)C)c(=O)n1N [Metribuzin]
characteristic symptoms (morphological phenotype) [1]: rapid and widespread leaf necrosis

O=C(O)c1ccccc1C(=O)Nc1cccc2ccccc12 [Naptalam]
Regulated Genes: Down (Arabidopsis thaliana [3]; [6]): 47 | Regulated Genes: Up (Arabidopsis thaliana [3]; [6]): 50 | No. of Lethal Genes Altered (Arabidopsis thaliana [3]): 3

CNc1cnn(-c2cccc(C(F)(F)F)c2)c(=O)c1Cl [Norflurazon]
stress related (commonly regulated) metabolites (Arabidopsis thaliana [4]): Only a few, if any

C[n+]1ccc(-c2cc[n+](C)cc2)cc1 [Paraquat]
characteristic symptoms (morphological phenotype) [1]: rapid and widespread leaf necrosis | Dev. leafWidth [1]: −1 | Dev. leafCurling [1]: 2 | Dev. leafTwisting [1]: 0 | Dev. matureLeafAnthocyanins [1]: 0 | Dev. matureLeafChlorosis [1]: 1 | Dev. matureLeafNecrosis [1]: 4 | Dev. newLeafAnthocyanins [1]: 0 | Dev. newLeafChlorosis [1]: 1 | Dev. newLeafNecrosis [1]: 4 | Dev. pointedLeaves [1]: 1 | Dev. tMic [1]: 2

CC[C@@H]([C@H](C)O)n1ncn(-c2ccc(N3CCN(c4ccc(OC[C@@H]5CO[C@@](Cn6cncn6)(c6ccc(F)cc6F)C5)cc4)CC3)cc2)c1=O [Posaconazole]
Fold Change: 4-aminobenzoic acid ([5]; platform nLC): 0
